Measurements: the NIST ThermoML archive (doi:10.1021/acs.jced.7b01125)
± gives the expanded uncertainty stated by the source.

Experiment: xn = mol fraction of the nth substance listed
Conditions: Gas, Buoyancy - hydrostatic balance with magnetic suspension - one sinker

[HH] [hydrogen] + C
Conditions	mass density [kg/m3]
275.01 K, 5005 kPa, x2 = 0.9	35.103 ± 0.047
275.01 K, 6005 kPa, x2 = 0.9	42.849 ± 0.049
275.01 K, 6005 kPa, x2 = 0.9499	45.691 ± 0.052
275.01 K, 7005 kPa, x2 = 0.9	50.825 ± 0.051
275.01 K, 7005 kPa, x2 = 0.9499	54.384 ± 0.054
275.01 K, 8002 kPa, x2 = 0.9	58.973 ± 0.052
275.01 K, 8003 kPa, x2 = 0.9499	63.333 ± 0.055
275.01 K, 9002 kPa, x2 = 0.9	67.322 ± 0.054
275.01 K, 9003 kPa, x2 = 0.9499	72.54 ± 0.057
275.01 K, 10005 kPa, x2 = 0.9	75.811 ± 0.055
275.01 K, 10006 kPa, x2 = 0.9499	81.955 ± 0.059
275.01 K, 11001 kPa, x2 = 0.4997	43.883 ± 0.061
275.01 K, 11005 kPa, x2 = 0.9499	91.455 ± 0.06
275.01 K, 11006 kPa, x2 = 0.9	84.369 ± 0.057
275.01 K, 12007 kPa, x2 = 0.9	92.928 ± 0.058
275.01 K, 12009 kPa, x2 = 0.9499	101.013 ± 0.061
275.01 K, 13009 kPa, x2 = 0.9	101.458 ± 0.059
275.01 K, 13011 kPa, x2 = 0.9499	110.507 ± 0.062
275.01 K, 14003 kPa, x2 = 0.4997	55.493 ± 0.077
275.01 K, 14006 kPa, x2 = 0.9	109.837 ± 0.06
275.01 K, 14006 kPa, x2 = 0.9499	119.787 ± 0.062
275.01 K, 15000 kPa, x2 = 0.4997	59.259 ± 0.082
275.01 K, 15008 kPa, x2 = 0.9	118.086 ± 0.06
275.01 K, 15018 kPa, x2 = 0.9499	128.986 ± 0.062
275.01 K, 16003 kPa, x2 = 0.9	126.067 ± 0.061
275.01 K, 16005 kPa, x2 = 0.4997	63.009 ± 0.086
275.01 K, 16016 kPa, x2 = 0.9499	137.753 ± 0.062
275.01 K, 17006 kPa, x2 = 0.4997	66.693 ± 0.091
275.01 K, 17009 kPa, x2 = 0.9	133.878 ± 0.061
275.01 K, 17010 kPa, x2 = 0.9499	146.15 ± 0.062
275.01 K, 18001 kPa, x2 = 0.4997	70.294 ± 0.096
275.01 K, 18006 kPa, x2 = 0.9	141.344 ± 0.06
275.01 K, 19020 kPa, x2 = 0.9499	161.966 ± 0.061
275.01 K, 19297 kPa, x2 = 0.4997	74.901 ± 0.1
275.01 K, 19909 kPa, x2 = 0.9499	168.44 ± 0.061
275.02 K, 18019 kPa, x2 = 0.9499	154.292 ± 0.062
275.02 K, 19012 kPa, x2 = 0.9	148.567 ± 0.061
275.02 K, 19897 kPa, x2 = 0.9	154.661 ± 0.071
299.95 K, 3999 kPa, x2 = 0.9	24.698 ± 0.042
299.95 K, 16003 kPa, x2 = 0.9	107.531 ± 0.053
299.96 K, 999 kPa, x2 = 0.9	5.941 ± 0.039
299.96 K, 999 kPa, x2 = 0.9499	6.241 ± 0.04
299.96 K, 1999 kPa, x2 = 0.9	12.047 ± 0.04
299.96 K, 2000 kPa, x2 = 0.9499	12.675 ± 0.041
299.96 K, 2983 kPa, x2 = 0.9499	19.18 ± 0.042
299.96 K, 2990 kPa, x2 = 0.9	18.241 ± 0.041
299.96 K, 3999 kPa, x2 = 0.9499	26.096 ± 0.043
299.96 K, 4999 kPa, x2 = 0.9	31.243 ± 0.043
299.96 K, 4999 kPa, x2 = 0.9499	33.078 ± 0.045
299.96 K, 5999 kPa, x2 = 0.9	37.914 ± 0.044
299.96 K, 6000 kPa, x2 = 0.9499	40.236 ± 0.046
299.96 K, 6999 kPa, x2 = 0.9	44.708 ± 0.045
299.96 K, 7000 kPa, x2 = 0.9499	47.554 ± 0.048
299.96 K, 8001 kPa, x2 = 0.9	51.609 ± 0.046
299.96 K, 8001 kPa, x2 = 0.9499	55.012 ± 0.048
299.96 K, 9002 kPa, x2 = 0.9	58.59 ± 0.047
299.96 K, 9003 kPa, x2 = 0.9499	62.59 ± 0.049
299.96 K, 10003 kPa, x2 = 0.9	65.636 ± 0.049
299.96 K, 10004 kPa, x2 = 0.9499	70.258 ± 0.051
299.96 K, 11001 kPa, x2 = 0.9499	77.955 ± 0.052
299.96 K, 11003 kPa, x2 = 0.9	72.706 ± 0.049
299.96 K, 12002 kPa, x2 = 0.9	79.763 ± 0.05
299.96 K, 12003 kPa, x2 = 0.9499	85.693 ± 0.053
299.96 K, 13002 kPa, x2 = 0.9	86.81 ± 0.051
299.96 K, 13003 kPa, x2 = 0.9499	93.405 ± 0.053
299.96 K, 14003 kPa, x2 = 0.9	93.813 ± 0.052
299.96 K, 14006 kPa, x2 = 0.9499	101.077 ± 0.054
299.96 K, 15004 kPa, x2 = 0.9499	108.622 ± 0.055
299.96 K, 15005 kPa, x2 = 0.9	100.739 ± 0.053
299.96 K, 16005 kPa, x2 = 0.9499	116.045 ± 0.054
299.96 K, 17007 kPa, x2 = 0.9	114.233 ± 0.053
299.96 K, 17007 kPa, x2 = 0.9499	123.312 ± 0.055
299.96 K, 18003 kPa, x2 = 0.9	120.727 ± 0.054
299.96 K, 18007 kPa, x2 = 0.9499	130.371 ± 0.055
299.96 K, 18999 kPa, x2 = 0.9499	137.175 ± 0.058
299.96 K, 19011 kPa, x2 = 0.9	127.134 ± 0.055
299.96 K, 19426 kPa, x2 = 0.9499	140.03 ± 0.044
299.96 K, 19795 kPa, x2 = 0.9	131.987 ± 0.064
324.96 K, 999 kPa, x2 = 0.9	5.467 ± 0.037
324.96 K, 1002 kPa, x2 = 0.4997	3.349 ± 0.029
324.96 K, 1999 kPa, x2 = 0.9	11.036 ± 0.037
324.96 K, 2003 kPa, x2 = 0.4997	6.689 ± 0.03
324.96 K, 2987 kPa, x2 = 0.4997	9.973 ± 0.031
324.96 K, 2999 kPa, x2 = 0.9	16.7 ± 0.038
324.96 K, 4000 kPa, x2 = 0.9	22.453 ± 0.039
324.96 K, 4001 kPa, x2 = 0.4997	13.346 ± 0.032
324.96 K, 4999 kPa, x2 = 0.9	28.286 ± 0.04
324.96 K, 5001 kPa, x2 = 0.4997	16.663 ± 0.033
324.96 K, 6000 kPa, x2 = 0.9	34.198 ± 0.041
324.96 K, 6001 kPa, x2 = 0.4997	19.966 ± 0.035
324.96 K, 6999 kPa, x2 = 0.9	40.162 ± 0.042
324.96 K, 7000 kPa, x2 = 0.4997	23.25 ± 0.037
324.96 K, 8002 kPa, x2 = 0.4997	26.528 ± 0.039
324.96 K, 8004 kPa, x2 = 0.9	46.209 ± 0.042
324.96 K, 8999 kPa, x2 = 0.4997	29.768 ± 0.042
324.96 K, 9000 kPa, x2 = 0.9	52.245 ± 0.043
324.96 K, 9001 kPa, x2 = 0.9499	55.531 ± 0.045
324.96 K, 9926 kPa, x2 = 0.4997	32.763 ± 0.045
